According to US20050159476A1, “Pharmaceutical composition for preventing or treating respiratory disease” (Chugai Seiyaku Kabushiki Kaisha, priority 2002, published 2005):
Read-outs that look alike come from different tables or passages of the source.

Columns and labels:
[1] = system: human A549 cells; test: Protective effect against cell injury induced by oxidized LDL in human A549 cells (LDH leakage); type: cell-based; conditions: for inhibition at 3 µM / inhibition at 30 µM: Homo sapiens, oxidized LDL 100 μg/mL, 24 hours, average ± standard error; for inhibition at 3 µM: 3 μmol/L test compound; for inhibition at 30 µM: 30 μmol/L test compound; for % cell protection as a function of test compound concentration (FIG. 1): test compound added immediately before oxidized LDL, Test Example 2
Protocol: (§1) Oxidized LDL was prepared by maintaining 1 mg/mL of rabbit LDL at 37° C for 24 hours in PBS (-) containing 10 μmol/L CUSO4.
Human A549 cells used in this test are available under accession number ATCC-CCL-185 and have the properties of type II alveolar epithelial cells (Lieber M, Smith B, Szakal A, Nelson-Rees W, Todaro G., A continuous tumor-cell line from a human lung carcinoma with properties of type II alveolar epithelial cells. Int J Cancer Jan. 15, 1976; 17(1):62-70).
(§2) These cells were dispersed in F12K medium containing 10% FBS and plated on a 24-well plate at 2.5×10^4 cells/500 μL/well. These cells were incubated at 37° C. for 18 hours and then the medium was replaced by F12K medium containing 2% FBS. At this time, 2.5 μL of a solution or a suspension of each test compound in ethanol was added at the concentrations of the test compound of 3 μmol/L and 30 μmol/L in each well.
(§3) After incubation at 37° C. for 6 hours, 50 μL of a suspension of oxidized LDL was added per well at the concentration of oxidized LDL of 100 μg/mL in each well.
(§4) After incubation at 37° C. for 24 hours, 200 μL of the supernatant was collected from each well and the amount of lactate dehydrogenase (LDH) leaked from cells was determined by the SFBC method.
(§5) Further test was carried out in the same manner as the above test with the exception that each test compound was added to the cell culture after incubation for 6 hours following medium replacement and immediately before oxidized LDL was added thereto rather than when the medium was replaced with F12K medium containing 2% FBS.
(§6) Higher LDH levels in the supernatant indicate that greater cell injury is induced by oxidized LDL. Separately, one experiment was carried out using a well in the same manner as the above test with the exception that no test compound was added to the well. The level of LDH in this well was defined as 0% cell protection. In addition, other experiment was carried out using another well without adding either test compound or oxidized LDL but with adding saline instead. The level of LDH in this well was defined as 100% cell protection. These levels of LDH were used for calculating cell protection of each test compound used in the above test.
Probucol and α-tocopherol were tested for comparison with the compounds of the present invention. In this test, the test compounds were added to the cell culture after incubation for 6 hours following medium replacement and immediately before oxidized LDL was added.

[2] = system: normal human bronchial/tracheal epithelial cells (NHBE w/RA); test: Protective effect against cell injury induced by oxidized LDL in normal human bronchial/tracheal epithelial cells (LDH leakage); type: cell-based; conditions: 24 h, average ± standard error; for inhibition at 3 µM: 3 μmol/L test compound; for inhibition at 30 µM: 30 μmol/L test compound
Protocol: as §1, §2, §3, §4, §5, §6
This test example was carried out in a similar manner to test example 1 except that human A549 cells were replaced with normal human bronchial/tracheal epithelial cells (NHBE w/RA: BioWhittaker Co.), cell culture medium was changed from F12K medium containing 10% FBS to BEGM® medium, and the replacement of medium was not made.

[3] = read-out: % Cell protection in the case where oxidized LDL was added 6 hrs after adding test compound
[4] = read-out: % Cell protection in the case where oxidized LDL was added immediately after adding test compound

SMILES | inhibition at 3 µM [1, 3] [%] | inhibition at 3 µM [1, 4] [%] | inhibition at 30 µM [1, 3] [%] | inhibition at 30 µM [1, 4] [%] | inhibition at 3 µM [2, 3] [%] | inhibition at 3 µM [2, 4] [%] | inhibition at 30 µM [2, 3] [%] | inhibition at 30 µM [2, 4] [%] | % cell protection as a function of test compound concentration (FIG. 1) [1]
CC(C)(C)c1cc2c(c(C(C)(C)C)c1O)CCO2 [Compound 1, 4,6-di-t-butyl-5-hydroxy-2,3-dihydrobenzofuran] | 11.3 ± 1.6 | 40.4 ± 8.3 | 99.6 ± 0.9 | 98.8 ± 0.2 | 5.9 ± 4.7 | 35.6 ± 16.8 | 74.7 ± 1.4 | 59.2 ± 7.6 | 
CC1(C)Cc2c(cc(C(C)(C)C)c(O)c2C(C)(C)C)O1 [Compound 2, 4,6-di-t-butyl-5-hydroxy-2,2-dimethyl-2,3-dihydrobenzofuran] | 0.5 ± 1.3 | 16.9 ± 10.5 | 99.5 ± 1.1 | 100 ± 1.5 | 32.8 ± 2.9 | 71.1 ± 1.3 | 27.7 ± 2.7 | 76.1 ± 3.4 | 
CC(C)(C)c1cc2c(c(C(C)(C)C)c1O)CC(Cc1ccccc1)(Cc1ccccc1)O2 [Compound 4, 4,6-di-t-butyl-2,2-dibenzyl-5-hydroxy-2,3-dihydrobenzofuran] | 6.1 ± 2.5 | 5.3 ± 2.5 | 94.1 ± 0.4 | 95.3 ± 3.4 | 12.3 ± 4.3 | 9.1 ± 2.3 | 47.8 ± 1.6 | 53.5 ± 3.1 | 
CC1(CN)Cc2c(cc(C(C)(C)C)c(O)c2C(C)(C)C)O1 (stereo not drawn) [Compound 5, 2-aminomethyl-4,6-di-t-butyl-5-hydroxy-2-methyl-2,3-dihydrobenzofuran] | 6.4 ± 0.8 | 6.9 ± 3.1 | 96.5 ± 0.5 | 97.1 ± 0.8 | 6.3 ± 4.5 | 0.8 ± 4.6 | 33.6 ± 1.8 | 48.3 ± 8.1 | 
CC1(C(=O)O)Cc2c(cc(C(C)(C)C)c(O)c2C(C)(C)C)O1 (stereo not drawn) [Compound 6, 4,6-di-t-butyl-5-hydroxy-2-methyl-2,3-dihydrobenzofuran-2-carboxylic acid] | 8.5 ± 0.8 | 9.1 ± 1.2 | 65.3 ± 2.9 | 46.7 ± 2.9 | -0.9 ± 1.8 | 0.3 ± 2 | 44.8 ± 3.2 | 30.3 ± 3.1 | 
CC(C)(C)c1cc2c(c(C(C)(C)C)c1O)CC1(CCCCCC1)O2 [Compound 7, 4,6-di-t-butyl-5-hydroxy-2,3-dihydrobenzofuran-2-spiro-1′-cycloheptane] | 1.6 ± 6 | -0.8 ± 2.8 | 98.2 ± 2.1 | 98.4 ± 1.1 | 7.7 ± 3.6 | 11.3 ± 1.1 | 58.7 ± 5.1 | 73.4 ± 0.4 | 
CC(C)(C)c1cc2c(c(C(C)(C)C)c1O)CC1(CCOCC1)O2 [Compound 8, 4,6-di-t-butyl-5-hydroxy-2,3-dihydrobenzofuran-2-spiro-4′-tetrahydropyran] | 10.6 ± 6.2 | 10.8 ± 5.2 | 95 ± 5.3 | 93.6 ± 2.9 | 10.1 ± 6 | 13.2 ± 1.4 | 74.3 ± 1.5 | 68.9 ± 0.8 | 
CC(C)(C)c1cc2c(c(C(C)(C)C)c1O)CC1(CCCC1)O2 [Compound 9, 4,6-di-t-butyl-5-hydroxy-2,3-dihydrobenzofuran-2-spiro-1′-cyclopentane] | -1.6 ± 4.4 | -1.5 ± 4.1 | 98.5 ± 1.8 | 99.2 ± 2.2 | 3.7 ± 6.7 | 6.1 ± 1.1 | 18.1 ± 2.3 | 71.1 ± 2.3 | 
CC(C)(Sc1cc(C(C)(C)C)c(O)c(C(C)(C)C)c1)Sc1cc(C(C)(C)C)c(O)c(C(C)(C)C)c1 [probucol, reference compound] |  |  |  |  |  |  |  |  | does not increase or only slowly increases
Cc1c(C)c2c(c(C)c1O)CC[C@@](C)(CCC[C@H](C)CCC[C@H](C)CCCC(C)C)O2 [α-tocopherol, reference compound] |  |  |  |  |  |  |  |  | does not increase or only slowly increases
